In experiment [1] the test system is MLD-STZ-induced diabetic mice. Kind of experiment: MLD-STZ-induced diabetes, weekly blood glucose, prophylactic treatment. The format is in vivo, mouse. The following applies: CBA/H mice; prophylactic i.p. treatment; FIG. 2B. Here is the method:
Diabetes induction and in vivo treatments. Diabetes was induced in adult male mice with multiple subtoxic doses of streptozotocin (MLD-STZ, 40 mg/kg body wt/day i.p. for five consecutive days) as described (21). The impact of polyclonal antibody against MIF was studied by i.p. injection of mice (5-10 per treatment group) with 5 mg/kg of rabbit IgG antibody against mouse […] on days −3, −1, 2 and 5 in relation to the first STZ dose. The effect of ISO-1 was studied by i.p. injection of the drug at a dose of 1 mg/mouse/day, for 14 consecutive days, starting 3 days prior to the first injection with STZ. Control animals received either nonimmune IgG or ISO-1 diluent (DMSO/H2O). Mice were monitored for diabetes by weekly measurement of blood glucose levels using a glucometer (Sensimac®, Imaco, Ludersdorf, Germany). Clinical diabetes was defined by hyperglycemia in non-fasted animals (blood glucose over 11.8 mmol/l).

For experiment [2], the system named is pancreatic islets of MLD-STZ diabetic mice. Kind of experiment: Histological examination of pancreas, insulitis score. The format is in vivo, mouse. Particulars: CBA/H mice; day 15; FIG. 2D. On the procedure: Histological and immunohistochemical examination of pancreas. Pancreata were fixed in neutral buffered formalin and then embedded in paraffin. The fixed blocks were sectioned (7 μm thick) and haematoxylin and eosin staining was performed to assess the incidence and degree of inflammatory changes. Insulitis scoring was performed as previously described (10, 11) by examining at least 15 islets per mouse and graded in a blinded fashion as follows: 0, no infiltrate; 1, peri-ductal infiltrate; 2, peri-islet infiltrate; 3, intraislet infiltrate; and 4, intraislet infiltrate associated with β-cell destruction. At least 15 islets were counted for each mouse. A mean score for each pancreas was calculated by dividing the total score by the number of islets examined. Insulitis scores (IS) are expressed as mean values±SD. Immunohistochemistry was performed on paraffin-embedded sections of formalin-fixed tissue using a previously described microwave-based method (24). For MIF immunostaining, a polyclonal rabbit anti-MIF IgG and control rabbit IgG were used. The examined area of the islet was outlined, and the percentage of MIF-positive islet cells was measured using quantitative Image Analysis System (Optima 6.5, Media Cybernatics, Silver Springs, Md.).

In experiment [3] the test system is spleen mononuclear cells (SMNC). Kind of experiment: Ex vivo lymphoproliferative response (3H-thymidine incorporation) after in vivo treatment. The arrangement: species or system mouse. Particulars: CBA/H mice treated in vivo; splenocytes day 15 after MLD-STZ; FIG. 3A. Here is the method:
(§1) Ex vivo lymphoproliferative response and adhesion assay. Spontaneous proliferation of SMNC was determined by incubation of cells (5×10^5/well) from each individual animal in 96-well microplates with 1 μCi ^3H-thymidine (^3H-TdR, ICN). Incorporated radioactivity was measured after 24 h in a Beckman liquid scintillation counter. The analysis of spontaneous adhesion of SMNC (2.5×10^5/well) to a monolayer of L929 fibroblasts or plastic was performed by using crystal violet assay as previously described (21). The absorbance corresponding to the number of adherent cells, was measured at 570 nm.

Experiment [4] shares this test system. Kind of experiment: Ex vivo spontaneous adhesion assay (crystal violet) after in vivo treatment. Details: species or system mouse. Particulars: SMNC from mice treated in vivo, FIG. 3B. On the procedure:
as §1

In experiment [5] the test system is TNF-α. Kind of experiment: Ex vivo TNF-α production, L929 cytolytic bioassay of culture supernatants. The format is in vivo, mouse. The following applies: day 15, 48 h culture, FIG. 4. Here is the method: Cell incubation and determination of pro-inflamatory mediators. Resident peritoneal cells (PC), spleen mononuclear cells (SMNC), and pancreatic islets were isolated from individual anti-MIF IgG-treated, ISO-1-treated or control diabetic mice on day 15 after the first injection of STZ, as well as from normal untreated animals. SMNC (5×10^6/well) prepared by Ficoll gradient centrifugation, resident PC (2.5×10^5/well) collected by peritoneal lavage with cold PBS, or pancreatic islets (150-200 islets/well) prepared by collagenase digestion and density gradient purification as described (22), were incubated in 24-well Limbro culture plates in 1 ml of RPMI-1640 culture medium containing 5% fetal bovine serum (FBS) and cell supernatants were collected after 48 h. Concentration of bioactive TNF-α in culture supernatant was determined as previously described (22) using a cytolytic bioassay with actinomycin D-treated fibrosarcoma cell line L929. Nitrite accumulation, an indicator of NO production, was determined in cell culture supernatant using the Griess reaction (22). The expression of intracellular MIF, IFN-γ, MHC II, or iNOS was determined by slight modification of cell-based ELISA protocol (23). Spleen MNC (5×10^5/well) or PC (2.5×10^5/well), were allowed to adhere to poly-L-lysine-precoated 96-well microplates. Following fixation with 4% paraformaldehyde, and washing with 0.1% Triton X-100 in PBS (T/PBS), endogenous peroxidase was quenched with 1% H2O2 in T/PBS, and reaction blocked for 1 h at 37° C. with 10% FBS in T/PBS. […] After washing, the cells were incubated for 1 h with the corresponding secondary antibody (goat anti-rabbit Ig(H+L)-HRP, goat anti-rat Ig(H+L)-HRP or goat anti-mouse Ig(F(ab′)2-specific)-HRP washed again and incubated for 15 min at room temperature in dark with 50 μl of a solution containing 0.4 mg/ml OPD (Sigma), 11.8 mg/ml Na2HPO4×2H2O, 7.3 mg/ml citric acid and 0.015% H2O2. The reaction was stopped with 3N HCl, and the absorbance was measured in a microplate reader at 492 nm in a Titertek microplate reader (Flow).

In experiment [6] the test system is iNOS. Kind of experiment: Intracellular iNOS expression, cell-based ELISA. The format is in vivo, mouse. The following applies: macrophages from treated animals vs diabetic animals; FIG. 5A. On the procedure: Cell incubation and determination of pro-inflamatory mediators. Resident peritoneal cells (PC), spleen mononuclear cells (SMNC), and pancreatic islets were isolated from individual anti-MIF IgG-treated, ISO-1-treated or control diabetic mice on day 15 after the first injection of STZ, as well as from normal untreated animals. […] Concentration of bioactive TNF-α in culture supernatant was determined as previously described (22) using a cytolytic bioassay with actinomycin D-treated fibrosarcoma cell line L929. Nitrite accumulation, an indicator of NO production, was determined in cell culture supernatant using the Griess reaction (22). The expression of intracellular MIF, IFN-γ, MHC II, or iNOS was determined by slight modification of cell-based ELISA protocol (23). […] After washing, the cells were incubated for 1 h with the corresponding secondary antibody (goat anti-rabbit Ig(H+L)-HRP, goat anti-rat Ig(H+L)-HRP or goat anti-mouse Ig(F(ab′)2-specific)-HRP washed again and incubated for 15 min at room temperature in dark with 50 μl of a solution containing 0.4 mg/ml OPD (Sigma), 11.8 mg/ml Na2HPO4×2H2O, 7.3 mg/ml citric acid and 0.015% H2O2. The reaction was stopped with 3N HCl, and the absorbance was measured in a microplate reader at 492 nm in a Titertek microplate reader (Flow).
For orientation: ELISA stands for enzyme-linked immunosorbent assay.

The target in experiment [7] is T1, MIF tautomerase (Homo sapiens, UniProt P14174).
T1 sequence (P14174 2-115 limits assumed): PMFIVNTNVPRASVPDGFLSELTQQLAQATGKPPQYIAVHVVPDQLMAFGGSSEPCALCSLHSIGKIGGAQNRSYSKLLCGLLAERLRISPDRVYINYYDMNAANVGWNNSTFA
Particulars: reference (20); cited from earlier work.

The mark [8] stands for this setting: cells from mice treated in vivo.

Molecules are shown by their SMILES.

`COC(=O)C[C@@H]1CC(c2ccc(O)cc2)=NO1` (racemic) [ISO-1, (S,R)-3-(4-hydroxyphenyl)-4,5-dihydro-5-isoxazole acetic acid methyl ester]: the “MLD-STZ-induced hyperglycemia (blood glucose levels)” value in experiment [1] is “remained euglycemic”. For the same compound, the “degree of islet infiltration (insulitis)” value in experiment [2] was “attenuated inflammation of the islets”. Also, in experiment [3], the “SMNC proliferation, 3H-thymidine incorporation” value came out at 25637±2018 cpm. Moreover, the “spontaneous adhesion of SMNC to plastic” value in experiment [4] was “significantly inhibited”. The “adhesion of SMNC to fibroblasts” value in experiment [4] (L929 fibroblasts) is on record as “significantly inhibited”. Also, in experiment [5] (setting [8]), the “TNF-α production by peritoneal macrophages” value was “down-regulated” and the “TNF-α production by spleen MNC” value is on record as “down-regulated”. Also, the “TNF-α production by pancreatic islet cells” value in experiment [5] (islets from mice treated in vivo) is on record as “down-regulated”. The “intracellular expression of iNOS in macrophages” value in experiment [6] was “significantly reduced”. In experiment [7], the “MIF tautomerase and biological activity” value is “inhibits”.
